Source: patent publication US20080039455A1, “PYRAZOLOPYRIMIDINES AND SALTS THEREOF, PHARMACEUTICAL COMPOSITIONS COMPRISING SAME, METHODS OF PREPARING SAME AND USES OF SAME” (priority 2006, published 2008)
Counter-ions that a name gives are not always drawn.

What was measured:
[1] = molecular target: T1, human recombinant ALK1 (GST fused to ALK1 intracellular domain [His142-Gln503]) (Homo sapiens, UniProt P37023); experiment: ALK1-Kinase Flashplate-Assay; format: biochemical; conditions: 0.5 μM ATP, biotinylated α-casein substrate; read-out: Assay 1 (ALK1-Kinase Flashplate-Assay IC50 class)
T1 construct: GST fused to ALK1 intracellular domain [His142-Gln503]; made in house
T1 sequence (P37023 142-503): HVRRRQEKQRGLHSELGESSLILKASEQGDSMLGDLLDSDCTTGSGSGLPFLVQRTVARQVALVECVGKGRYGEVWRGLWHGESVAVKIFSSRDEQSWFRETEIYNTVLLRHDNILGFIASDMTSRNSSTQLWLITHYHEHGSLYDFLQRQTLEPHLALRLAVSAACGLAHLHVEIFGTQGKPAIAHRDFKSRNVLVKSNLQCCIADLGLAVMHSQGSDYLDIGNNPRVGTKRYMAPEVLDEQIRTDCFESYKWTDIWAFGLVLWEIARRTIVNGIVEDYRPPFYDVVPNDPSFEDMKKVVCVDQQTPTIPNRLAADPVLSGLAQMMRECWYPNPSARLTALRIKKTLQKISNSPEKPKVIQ
Procedure, shortened: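 Radiometric Flashplate assay at 20 °C: GST-ALK1 intracellular domain (5 ng/well) with 1 μM biotinylated bovine α-casein, 0.5 μM ATP plus [γ-33P]ATP in Tris pH 8.0, 1 mM MnCl2, 1% or 5% DMSO, 60 min. Normalised to no-inhibitor (0%) and 10 mM EDTA (100%); IC50 by 4-parameter fit.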

[2] = molecular target: T2, ALK1 (wildtype full-length ALK1 receptor) (Homo sapiens, UniProt P37023); experiment: ALK1 transactivation assay (ID1-promoter luciferase reporter in transfected HepG2 cells); format: cell-based; conditions: ID1-luc reporter, 18 h, read-out: Assay 2 (ALK1 transactivation assay IC50 class)
T2 construct: expression vector for wildtype full-length ALK1 receptor; expressed in transfected cells; host or cells: HepG2 (ATCC HB-8065), transient transfection with ALK1wt in pcDNA3.1
T2 sequence (P37023 22-503): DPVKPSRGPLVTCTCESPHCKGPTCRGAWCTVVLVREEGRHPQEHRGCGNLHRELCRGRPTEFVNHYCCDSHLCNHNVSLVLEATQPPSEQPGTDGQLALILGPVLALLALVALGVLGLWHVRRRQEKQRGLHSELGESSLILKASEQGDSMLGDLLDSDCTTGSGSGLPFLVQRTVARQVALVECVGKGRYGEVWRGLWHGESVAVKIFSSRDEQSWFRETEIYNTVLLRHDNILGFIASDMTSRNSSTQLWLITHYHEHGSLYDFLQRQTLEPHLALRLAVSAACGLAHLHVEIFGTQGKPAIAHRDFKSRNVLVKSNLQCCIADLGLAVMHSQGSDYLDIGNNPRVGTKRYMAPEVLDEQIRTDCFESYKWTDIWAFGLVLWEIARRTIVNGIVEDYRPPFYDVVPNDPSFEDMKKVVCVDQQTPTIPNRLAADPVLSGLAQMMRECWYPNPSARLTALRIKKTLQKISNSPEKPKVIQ
Description: Biological Assay 2: ALK1 Transactivation Assay
Herein HepG2 cell-cultures were transiently transfected by known techniques with an ALK1 plasmid (expression vector for wildtype full-length ALK1 receptor) and ID1 reporter plasmid containing 1.3 kB (−1370 to +86) of the ID1-promoter upstream of a luciferase reporter gene. ID1 is a known target gene of ALK1 and therefore gets transactivated by cotransfection with the ALK1 receptor. The specific transactivation is quantified via relative light units (RLU) which are detected in dependence of luciferase expression. Therefore a commercially available detection kit which contains the luciferase substrate luciferine was used.
HepG2 cells, ATCC HB-8065
96well plate polypropylene for compound dilution in DMSO
DMEM Ham's F12 (Biochrom #F4815) with 10% FCS after dialysis, 1% PenStrep and 200 mM Glutamine
steadyliteHTS (Perkin Elmer# 6016981)
Day 1: Seeding of Cells on 96-Well Plates
HepG2 cells are seeded on 96-well plates at a density of 7000 cells/ well in DMEM/HamsF12+5% FCS (+1% P/S, +1% Gln).
Day 2: Transfection of Cells
200 ng DNA: 100 ng ID1-luc (in pGL3basic, Promega)+5 ng ALK1wt (in pcDNA3.1)+95 ng pcDNA3.1 (empty vector, Invitogen)
Fugene and OptiMEM are incubated for 5 min at RT. This mixture is incubated with the DNA for 15 min at RT.
Afterwards, the plate is incubated under shaking conditions at room temperature (RT) for 1 h. After 4 hours at 37° C. the supernatants are drawn off by suction and the wells are replaced with medium (100 μl/well) containing low serum (0.2% FCS) and test substances.
Plates are incubated for further 18 h at 37° C.
100 μl luciferase substrate (steadyliteHTS, Packard) are added per well and plates are measured after 10 minutes in a luminometer (e.g. Viktor luminometer, Perkin Elmer). Luciferase activity is quantified by relative light units (RLU).
Calculation of IC50: ALK1wt−DMSO Control (without ALK1)=100% Substance(+ALK1wt)−DMSO control (without ALK1)=x % IC50=50% inhibition of ALK1 transactivation activity Biological data are presented below: Biological assay 1: ALK1-Kinase Flashplate-Assay

IC50 [1] | IC50 [2] | Structure (SMILES)
< 1 µM | < 10 µM | COc1cc(OC)cc(-c2cnn3ccc(Nc4ccc(N5CCOCC5)cc4)nc23)c1 [Example 127, [3-(3,5-Dimethoxy-phenyl)-pyrazolo[1,5-a]pyrimidin-5-yl]-(4-morpholin-4-yl-phenyl)-amine]
< 1 µM | < 10 µM | COc1ccc(-c2cnn3ccc(Nc4ccc(N5CCOCC5)cc4)nc23)cc1OC [Example 27, [3-(3,4-Dimethoxy-phenyl)-pyrazolo[1,5-a]pyrimidin-5-yl]-(4-morpholin-4-yl-phenyl)-amine]
< 1 µM | < 10 µM | CC(C)c1ccc(Nc2ccn3ncc(-c4cccc(C(N)=O)c4)c3n2)cc1 [Example 449, 3-[5-(4-Isopropyl-phenylamino)-pyrazolo[1,5-a]pyrimidin-3-yl]-benzamide]
< 1 µM | < 10 µM | COc1cc(OC)cc(-c2cnn3ccc(Nc4ccc(N5CCOCC5)nc4)nc23)c1 [Example 30, [3-(3,5-Dimethoxy-phenyl)-pyrazolo[1,5-a]pyrimidin-5-yl]-(6-morpholin-4-yl-pyridin-3-yl)-amine]
< 1 µM | < 10 µM | COc1cc(-c2cnn3ccc(Nc4ccc(F)cc4)nc23)cc(OC)c1OC [Example 3, (4-fluoro-phenyl)-[3-(3,4,5-trimethoxy-phenyl)-pyrazolo[1,5-a]pyrimidin-5-yl]-amine]
< 1 µM | < 10 µM | COc1ccc(-c2cnn3ccc(Nc4ccc(N5CCOCC5)cc4)nc23)cn1 [Example 20, [3-(6-Methoxy-pyridin-3-yl)-pyrazolo[1,5-a]pyrimidin-5-yl]-(4-morpholin-4-yl-phenyl)-amine]
< 1 µM | < 10 µM | c1csc(-c2cnn3ccc(NC4CCNCC4)nc23)c1 [Example 495, Piperidin-4-yl-(3-thiophen-2-yl-pyrazolo[1,5-a]pyrimidin-5-yl)-amine bis TFA salt]
< 1 µM | < 10 µM | COc1cc(-c2cnn3ccc(Nc4ccc(N5CCOCC5)cc4)nc23)cc(OC)c1OC [Example 421, (4-Morpholin-4-yl-phenyl)-[3-(3,4,5-trimethoxy-phenyl)-pyrazolo[1,5-a]pyrimidin-5-yl]-amine]
< 1 µM | < 10 µM | COc1cc(-c2cnn3ccc(Nc4ccccc4)nc23)cc(OC)c1OC [Example 2, phenyl-[3-(3,4,5-trimethoxy-phenyl)-pyrazolo[1,5-a]pyrimidin-5-yl]-amine]
< 1 µM | < 10 µM | COc1cc(OC)cc(-c2cnn3ccc(NC4CCN(C)CC4)nc23)c1 [Example 10, [3-(3,5-Dimethoxy-phenyl)-pyrazolo[1,5-a]pyrimidin-5-yl]-(1-methyl-piperidin-4-yl)-amine]
< 1 µM | < 10 µM | Cc1ccc(Nc2ccn3ncc(-c4cccc(O)c4)c3n2)cc1NS(C)(=O)=O [Example 427, N-{5-[3-(3-Hydroxy-phenyl)-pyrazolo[1,5-a]pyrimidin-5-ylamino]-2-methyl-phenyl}-methanesulfonamide]
< 1 µM | < 10 µM | FC(F)(F)c1cccc(-c2cnn3ccc(Nc4ccc(N5CCOCC5)nc4)nc23)c1 [Example 26, (6-Morpholin-4-yl-pyridin-3-yl)-[3-(3-trifluoromethyl-phenyl)-pyrazolo[1,5-a]pyrimidin-5-yl]-amine]
< 1 µM | < 10 µM | COc1ccc(Nc2ccn3ncc(-c4ccc(OC)c(OC)c4)c3n2)cn1 [Example 465, [3-(3,4-Dimethoxy-phenyl)-pyrazolo[1,5-a]pyrimidin-5-yl]-(6-methoxy-pyridin-3-yl)-amine]
< 1 µM | < 10 µM | CN1CCC(Nc2ccn3ncc(-c4cccc(C(F)(F)F)c4)c3n2)CC1 [Example 490, (1-methyl-piperidin-4-yl)-[3-(3-trifluoromethyl-phenyl)-pyrazolo[1,5-a]pyrimidin-5-yl]-amine]
< 1 µM | < 10 µM | COc1cncc(-c2cnn3ccc(Nc4ccc(N5CCOCC5)cc4)nc23)c1 [Example 422, [3-(5-Methoxy-pyridin-3-yl)-pyrazolo[1,5-a]pyrimidin-5-yl]-(4-morpholin-4-yl-phenyl)-amine]
< 1 µM | < 10 µM | CS(=O)(=O)c1cccc(-c2cnn3ccc(Nc4ccc(N5CCOCC5)cc4)nc23)c1 [Example 131, [3-(3-Methanesulfonyl-phenyl)-pyrazolo[1,5-a]pyrimidin-5-yl]-(4-morpholin-4-yl-phenyl)-amine]
